# Test results published in patent US9617545B2, “Method for treating breast cancer by targeting breast cancer stem cell” (KYUNGPOOK NATIONAL UNIVERSITY INDUSTRY-ACADEMIC COOPERATION …, priority 2014, dated 2017).
# What was measured:
# P-glycoprotein (P-gp) = test: Western blotting of P-gp after siRNA knockdown in MCF7/ADR cells; format: cell-based, human; details: gene silenced with siRNA 20 nM, FIG. 7
# Experimental: (§1) Proteins were electrophoresed on SDS-PAGE, and the separated proteins were transferred to a nitrocellulose membrane (Whatman), and then blocked at room temperature for 15 minutes in a TBS-5% non-fat milk solution supplemented with 0.1% Tween-20. The membrane was cultured overnight with a primary antibody at 4° C., cultured with a horseradish peroxidase-conjugated secondary antibody at room temperature for an hour, and developed using a West Pico chemiluminescent substrate (PIERCE).
# (§2) The primary antibodies used herein were P-gp (Cell Signaling Technology, #12683, 1:1000), p-PI3K (Santa Cruz Biotechnology, sc-12929, 1:500), PI3K (Santa Cruz Biotechnology, sc-1637, 1:500), p-Akt (Cell Signaling Technology, #9271, 1:1000), Akt (Cell Signaling Technology, #9272, 1:1000), β-catenin (Cell Signaling Technology, #9562, 1:1000), and β-actin (Santa Cruz Biotechnology, sc-47778, 1:500).
# (§3) siRNA transfection was performed using a Neon® Transfection system (Life technologies). After 48 hours, the expression of each gene was analyzed using qRT-PCR.
# To further evaluate whether the six genes finally screened in Example 4 regulated the drug resistance and the size and number of CSC populations, the genes were knocked down with siRNA, and an expression level of P-gp was determined using western blotting. That is, the MCF7/ADR cells were transfected with siRNA of each gene, and an expression level of P-gp was measured.
# MCF7/ADR cells [1] = test: qRT-PCR of CSC, resistance and EMT markers after siRNA silencing; format: cell-based, human; details: for mRNA expression of markers (CD44, N-cadherin): FIG. 8B; for mRNA expression of markers (CD44, Integrin-α6, P-gp, Vimentin, N-cadherin, E-cadherin): FIG. 8A
# Experimental: Total RNAs were extracted from the cultured cells using a TRIzoL reagent (Invitrogen), and cDNAs were synthesized using a cDNA synthetic kit (Promega) for reverse transcription-PCR.
# In this case, the real-time PCR was performed in a Bio-Rad Real-Time PCR system using a SYBR Green PCR Master mix (Applied Biosystems), and the data was obtained by calculating an average value for separate experiments performed in at least triplicate.
# as §3
# Therefore, to determine whether EXT1, LDHB, CD109, EFEMP2, RASIP1, and SERPINE1 were associated with the aggressive phenotype of cancer, the mRNA expression levels of cancer stem cell markers (CD44, and Integrin-α6 (ITGA6)), a resistance marker (P-gp), and EMT markers (Vimentin, N-cadherin, and E-cadherin) were determined using qRT-PCR.
# MCF7/ADR cells [2] = test: CD44+/CD24− assay (flow cytometric assay) after siRNA silencing; format: cell-based, human; details: for number of the cancer stem cells: genes silenced in the resistant cells, summary statement; for CD44+/CD24− population decreased by: MCF7/ADR cells transfected with siRNA, FIG. 9A
# Experimental: To detect cancer stem cells (CSCs) in the MCF7 and MCF7/ADR cells, a breast cancer stem cell surface antigen, CD44+/CD24−, was assayed.
# Specifically, the 1×10^6 cells were labeled with anti-human CD44-APC and CD24-PE (BD biosciences). In this case, the antibody was diluted with a 5% BSA solution. The cells were cultured at room temperature for 25 minutes, washed, re-suspended in […] of 5% BSA, and then detected using BD FACS Aria III.
# as §3
# MCF7/ADR cells [3] = test: Mammosphere formation assay after siRNA silencing; format: cell-based, human; details: for self-proliferation ability: genes silenced in the resistant cells, summary statement; for number and size of the mammospheres: MCF7/ADR cells, compared to the control, FIG. 10
# Experimental: Since the breast cancer stem cells formed a mass of colonies in the form of floating spheres without attaching to a surface of a plate, the size and number of the masses were observed by a mammosphere formation assay to determine a cancer-stem-cell-specific effect.
# Specifically, a single-cell suspension was cultured at a density of 1,000 to 15,000 cells/well (on an ultralow attachment culture plate (Corning CoStar)) using a MammoCult™ Human Medium kit (Stem Cell Technologies), and the spherical cells were counted and observed under a microscope.
# as §3
# To determine whether the EXT1 and LDHB regulated the self-renewal capacity of CSCs in the MCF7/ADR cells, a mammosphere formation assay was performed.
# [4] = tested on: PI3K-β-catenin signaling pathway; test: Western blot of PI3K-β-catenin signaling pathway factors after siRNA treatment; format: cell-based, human; details: MCF7/ADR cells treated with siRNA; FIG. 11
# Experimental: as §1, §2, §3
# Wnt signaling is a major pathway for maintaining stemness, and β-catenin is a particularly important regulator. Also, since the PI3K-Akt signaling pathway is known from previous research to regulate a Wnt-β-catenin signaling pathway, it was determined how the EXT1 and LDHB genes regulated the stemness, and whether the EXT1 and LDHB genes were associated with the pathways.
# Therefore, it was confirmed that, when the MCF7/ADR cells were treated with siRNAs against the EXT1, LDHB, CD109, EFEMP2, RASIP1 and SERPINE1 genes (Table 3), the expression of β-catenin decreased, and the expression of phosphorylated PI3K (p-PI3K) in an active form of PI3K, and phosphorylated Akt (p-Akt) in an active form of Akt […] (see FIG. 11).
# common cancer cells = test: Cell viability of common cancer cells under gene expression inhibitor; format: cell-based; details: treatment with the gene expression inhibitor; summary statement
# xenografted tumor = details: administered to an animal into which tumor has been xenografted; cited from earlier work
# MCF7/ADR cells [5] = test: ALDEFLUOR assay (ALDH+ population) after siRNA silencing; format: cell-based, human; details: MCF7/ADR cells transfected with siRNA; FIG. 9B
# Experimental: Specifically, the cells were stained with […] bodipyaminoacetaldehyde (BAAA), and then cultured at 37° C. for 45 minutes. An ALDH1 inhibitor, diethylaminobenzaldehyde (DEAB), was used as the negative control. The 1 ×10^6 stained cells were assayed using BD FACS Aria III. In this case, the positive fluorescent ALDH1-expressed cells (ALDH+) were detected in a green fluorescent channel (520 to 540 nm).
# as §3
Molecule,expression of P-glycoprotein (P-glycoprotein (P-gp)),"mRNA expression of markers (CD44, N-cadherin) (MCF7/ADR cells [1])",number of the cancer stem cells (MCF7/ADR cells [2]),self-proliferation ability (MCF7/ADR cells [3]),expression of phosphorylated Akt (p-Akt) [4],expression of phosphorylated PI3K (p-PI3K) [4],expression of β-catenin [4],cell viability of common cancer cells (common cancer cells),tumor size in xenografted animal (xenografted tumor),"mRNA expression of markers (CD44, Integrin-α6, P-gp, Vimentin, N-cadherin, E-cadherin) (MCF7/ADR cells [1])",CD44+/CD24− population decreased by (MCF7/ADR cells [2]),ALDH+ population decreased by (MCF7/ADR cells [5]),number and size of the mammospheres (MCF7/ADR cells [3])
"siSERPINE1: siRNA against SERPINE1 gene (Bioneer siRNA No. 1135690); sense SEQ ID NO: 11, anti-sense SEQ ID NO: 12 (sense CACACAAAAGGUAUGAUCA; antisense UGAUCAUACCUUUUGUGUG; listed as RNA, chemistry not given here)",down-regulated,reduced,decreased,lowered,increased,increased,decreased,no change,,,,,
CC1=C2C[C@H]3[C@@H](CC=C4C[C@@H](O)CC[C@@]43C)[C@@H]2CC[C@]12O[C@@H]1C[C@H](C)CN[C@H]1[C@H]2C [cyclopamine],,,,,,,,,dramatically contracted,,,,
"siEFEMP2: siRNA against EFEMP2 gene (Bioneer siRNA No. 1045872); sense SEQ ID NO: 7, anti-sense SEQ ID NO: 8 (sense CCCAAACCUGUGUCAACUU; antisense AAGUUGACACAGGUUUGGG; listed as RNA, chemistry not given here)",down-regulated,reduced,decreased,lowered,increased,increased,decreased,no change,,,,,
"siLDHB: siRNA against LDHB gene (Bioneer siRNA No. 1083399); sense SEQ ID NO: 3, anti-sense SEQ ID NO: 4 (sense GAUUCAUCCCGUGUCAACA; antisense UGUUGACACGGGAUGAAUC; listed as RNA, chemistry not given here)",down-regulated,,decreased,lowered,increased,increased,decreased,no change,,reduced,~5.52%,~3.21%,significantly reduced
"siEXT1: siRNA against EXT1 gene (Bioneer siRNA No. 1049149); sense SEQ ID NO: 1, anti-sense SEQ ID NO: 2 (sense CACUUCUGGAUAACUCUA; antisense UAGAGUUAUCCCAGAAGUG; listed as RNA, chemistry not given here)",down-regulated,,decreased,lowered,increased,increased,decreased,no change,,reduced,approximately 5.09%,approximately 2.1%,significantly reduced
"siRASIP1: siRNA against RASIP1 gene (Bioneer siRNA No. 1126933); sense SEQ ID NO: 9, anti-sense SEQ ID NO: 10 (sense CUGGAUAGUAACCCUUUCA; antisense UGAAAGGGUUACUAUCCAG; listed as RNA, chemistry not given here)",down-regulated,reduced,decreased,lowered,increased,increased,decreased,no change,,,,,
"siCD109: siRNA against CD109 gene (Bioneer siRNA No. 1027641); sense SEQ ID NO: 5, anti-sense SEQ ID NO: 6 (sense GAGUACUGGAGCGGAUCUA; antisense UAGAUCCGUCCAGUACUC; listed as RNA, chemistry not given here)",down-regulated,reduced,decreased,lowered,increased,increased,decreased,no change,,,,,
